Values after ≈ are worked out from the molar mass of the structure shown. Read-outs that look alike come from different tables or passages of the source.
Assays:
[1] = test system: Peptostreptococcus intermedius 1264; assay: MIC, anaerobic bacteria; type: cell-based
[2] = test system: Bacteroides melaninogenicus 1856/28; assay: MIC, anaerobic bacteria; type: cell-based; settings: Prevotella intermedia
[3] = test system: Peptococcus asaccharolyticus 1302; assay: MIC, anaerobic bacteria; type: cell-based; settings: Peptoniphilus asaccharolyticus
[4] = test system: Bacteroides fragilis 1877; assay: MIC, anaerobic bacteria; type: cell-based
[5] = test system: Eubacterium aerofaciens 1235; assay: MIC, anaerobic bacteria; type: cell-based; settings: Collinsella aerofaciens
[6] = test system: Bacteroides fragilis 1936B; assay: MIC, anaerobic bacteria; type: cell-based
[7] = test system: Bacteroides melaninogenicus 2736; assay: MIC, anaerobic bacteria; type: cell-based
[8] = test system: Propionibacterium acnes 79; assay: MIC, anaerobic bacteria; type: cell-based; settings: Cutibacterium acnes
[9] = test system: Bacteroides thetaiotaomicron 1438; assay: MIC, anaerobic bacteria; type: cell-based
From the text: (§1) The agar-dilution procedure described by the International Collaborative Study (ICS) group was used to determine MIC values.

[10] = test system: Clostridium septicum 1128; assay: MIC, anaerobic bacteria; type: cell-based
From the text: as §1

[11] = test system: Streptococcus faecalis X66; assay: agar-dilution MIC; type: cell-based; settings: Enterococcus faecalis
[12] = test system: Bacteroides fragilis 111; assay: MIC, anaerobic bacteria; type: cell-based
[13] = test system: Actinomyces israelii W855; assay: MIC, anaerobic bacteria; type: cell-based
[14] = test system: Clostridium perfringens 81; assay: microbe, parasite or virus in culture; type: cell-based
[15] = test system: Fusobacterium necrophorum 6054A; assay: MIC, anaerobic bacteria; type: cell-based
[16] = electrometric titration; type: physicochemical; settings: 66% dimethylformamide in water
Method: Antibiotic A-39183 factor A is a yellow, crystalline solid, having a molecular weight of 598.58, as determined by mass spectrometry, and an approximate elemental analysis as follows: 67.95% carbon, 5.20% hydrogen, and 26.79% oxygen. […] A-39183 factor A has the following specific rotation: [α]D^25 +18.9° (c 9.52, trifluoroethanol).
Antibiotic A-39183 factor b is a red, crystalline solid having a molecular weight of 580, as determined by mass spectrometry, and an approximate elemental analysis as follows: 70.56% carbon, 4.97% hydrogen, and 24.57% oxygen. […] A-39183 factor B has the following specific rotation: [α]D^25 +576.9° (c 8.85, trifluoroethanol).

[17] = test system: Peptococcus prevoti 1281; assay: MIC, anaerobic bacteria; type: cell-based
[18] = test system: Staphylococcus aureus 3055; assay: agar-dilution MIC; type: cell-based
From the text: as §1

[19] = test system: Bacteroides corrodens 1874; assay: MIC, anaerobic bacteria; type: cell-based
[20] = test system: Peptostreptococcus anaerobius 1428; assay: MIC, anaerobic bacteria; type: cell-based
[21] = test system: Fusobacterium symbiosum 1470; assay: MIC, anaerobic bacteria; type: cell-based
[22] = solubility; type: physicochemical; settings: organic solvents
[23] = test system: Bacteroides vulgatis 1211; assay: MIC, anaerobic bacteria; type: cell-based
[24] = test system: Bacteroides fragilis 2; assay: MIC, anaerobic bacteria; type: cell-based
[25] = test system: Bacteroides fragilis 107; assay: MIC, anaerobic bacteria; type: cell-based
[26] = test system: Bacteroides fragilis 110; assay: MIC, anaerobic bacteria; type: cell-based
[27] = test system: Staphylococcus aureus 3055; assay: disc-plate zone of inhibition; type: cell-based; settings: benzylpenicillin-susceptible, 6 mm discs, read-out: Zone Diameter
Method: (§2) Agar plates, inoculated with the test organism, were used; 6 mm. discs (0.02 ml. capacity) were saturated from log 2 dilutions of the antibiotic solution. Disc content was 1/5 or 1/50 of the concentration of the solution used, i.e., disc content of […] 30 μg. was obtained from a solution of 1500 μg./ml. concentration.

[28] = test system: Staphylococcus aureus 3130; assay: disc-plate zone of inhibition; type: cell-based; settings: benzylpenicillin-resistant, methicillin-resistant, 6 mm discs, read-out: Zone Diameter
Method: as §2

[29] = test system: Staphylococcus aureus 3074; assay: disc-plate zone of inhibition; type: cell-based; settings: benzylpenicillin-resistant, 6 mm discs, read-out: Zone Diameter
Method: as §2

[30] = test system: Streptococcus pyogenes C203; assay: disc-plate zone of inhibition; type: cell-based; settings: 6 mm discs, read-out: Zone Diameter
Method: as §2

[31] = test system: Streptococcus sp. (Group D) 9960; assay: disc-plate zone of inhibition; type: cell-based; settings: 6 mm discs, read-out: Zone Diameter
Method: as §2

[32] = test system: Streptococcus pneumoniae Park I; assay: disc-plate zone of inhibition; type: cell-based; settings: 6 mm discs, read-out: Zone Diameter
Method: as §2

[33] = test system: Bacteroides fragilis 108; assay: MIC, anaerobic bacteria; type: cell-based
[34] = test system: Bacteroides fragilis 1470; assay: MIC, anaerobic bacteria; type: cell-based
[35] = test system: Bacteroides fragilis 112; assay: MIC, anaerobic bacteria; type: cell-based
[36] = test system: Bacteroides fragilis 106; assay: MIC, anaerobic bacteria; type: cell-based
[37] = test system: Bacteroides fragilis 1451; assay: MIC, anaerobic bacteria; type: cell-based
[38] = test system: Staphylococcus aureus 3074; assay: agar-dilution MIC; type: cell-based; settings: agar-dilution method, benzylpenicillin-resistant
[39] = test system: Bacteroides fragilis 113; assay: MIC, anaerobic bacteria; type: cell-based
[40] = test system: Bacteroides vulgatis 1563; assay: MIC, anaerobic bacteria; type: cell-based
[41] = test system: Bacteroides fragilis 62; assay: MIC, anaerobic bacteria; type: cell-based
[42] = test system: Bacteroides fragilis 103; assay: MIC, anaerobic bacteria; type: cell-based
[43] = test system: Bacteroides fragilis 104; assay: MIC, anaerobic bacteria; type: cell-based
[44] = test system: Bacteroides thetaiotaomicron 1900A; assay: MIC, anaerobic bacteria; type: cell-based
[45] = test system: Bacteroides fragilis 9; assay: MIC, anaerobic bacteria; type: cell-based
[46] = Bacteroides fragilis, 1877, Bacteroides fragilis 1877, first listing
[47] = Bacteroides thetaiotaomicron, 1438, Bacteroides thetaiotaomicron 1438, first listing, read-out: MIC
[48] = Bacteroides fragilis, 111, Bacteroides fragilis 111, first listing
[49] = Eikenella corrodens, 1874, Bacteroides corrodens 1874, first listing

With `CC(=O)C1c2c(c(O)c3c(O)cccc3c2-c2c3c(c(O)c4c(O)cccc24)C(=O)CC(C)(O)C3C(C)=O)C(=O)CC1(C)O` (centres unmarked) [A-39183 factor A] the MIC [1] was 32 µg/mL (≈ 53.5 µM), the MIC [2] was greater than 128 µg/mL and the MIC [3] was 64 µg/mL (≈ 107 µM). The MIC [4, 46] was 32 µg/mL (≈ 53.5 µM), the MIC [5] was 32 µg/mL (≈ 53.5 µM) and the MIC [6] was 32 µg/mL (≈ 53.5 µM). The MIC [7] was 16 µg/mL (≈ 26.7 µM), the MIC [8] was 32 µg/mL (≈ 53.5 µM) and the MIC [9, 47] was 16 µg/mL (≈ 26.7 µM). For the same compound, the MIC [10] was 16 µg/mL (≈ 26.7 µM), the MIC ([11]; agar-dilution method, read-out: MIC) was 32 µg/mL (≈ 53.5 µM) and the MIC [12, 48] was 32 µg/mL (≈ 53.5 µM). The MIC [13] was no more than 0.5 µg/mL, the MIC [14] was 32 µg/mL (≈ 53.5 µM) and the MIC [15] was 16 µg/mL (≈ 26.7 µM). For the same compound, the pKa ([16]; pH 4.81, 66% dimethylformamide in water, initial pH 4.81, read-out: pKa (first titratable group)) was roughly 6.75, the pKa ([16]; pH 4.81, 66% dimethylformamide in water, initial pH 4.81, read-out: pKa (second titratable group)) was roughly 8.43 and the MIC [17] was 32 µg/mL (≈ 53.5 µM). The MIC ([18]; agar-dilution method, benzylpenicillin-susceptible, read-out: MIC) was 32 µg/mL (≈ 53.5 µM), the MIC [19, 49] was 32 µg/mL (≈ 53.5 µM) and the MIC [20] was 64 µg/mL (≈ 107 µM). The MIC [21] was 64 µg/mL (≈ 107 µM), the “solubility (soluble)” value [22] was “soluble in acetone, ethyl acetate, chloroform, dimethylformamide, dimethyl sulfoxide, and trifluoroethanol” and the MIC [23] was 32 µg/mL (≈ 53.5 µM).
For `CC(=O)c1c(C)cc(O)c2c(O)c3c(O)cccc3c(-c3c4c(c(O)c5c(O)cccc35)C(=O)CC(C)(O)C4C(C)=O)c12` (centres unmarked) [A-39183 factor B], the MIC [1] was 2 µg/mL (≈ 3.44 µM), the MIC [24] was 2 µg/mL (≈ 3.44 µM) and the MIC [2] was greater than 128 µg/mL. It also gave an MIC [25] of 4 µg/mL (≈ 6.89 µM), an MIC [3] of 32 µg/mL (≈ 55.1 µM) and an MIC [4, 46] of 1 µg/mL (≈ 1.72 µM). The MIC ([4]; Bacteroides fragilis, 1877, Bacteroides fragilis 1877, second listing) was 4 µg/mL (≈ 6.89 µM), the MIC [5] was 8 µg/mL (≈ 13.8 µM) and the MIC [26] was 4 µg/mL (≈ 6.89 µM). For the same compound, the MIC [6] was 2 µg/mL (≈ 3.44 µM), the zone of inhibition at 30 µg/disc ([27]; 30 μg/disc) was 0 mm and the zone of inhibition at 300 µg/disc ([27]; 300 μg/disc) was 0 mm. It also gave a zone of inhibition at 30 µg/disc ([28]; 30 μg/disc) of 13.4 mm, a zone of inhibition at 300 µg/disc ([28]; 300 μg/disc) of 14 mm and a zone of inhibition at 30 µg/disc ([29]; 30 μg/disc) of 14.8 mm. For the same compound, the zone of inhibition at 300 µg/disc ([29]; 300 μg/disc) was 15.8 mm, the zone of inhibition at 30 µg/disc ([30]; 30 μg/disc) was 8 mm and the zone of inhibition at 300 µg/disc ([30]; 300 μg/disc) was 10 mm. The zone of inhibition at 30 µg/disc ([31]; 30 μg/disc) was 0 mm, the zone of inhibition at 300 µg/disc ([31]; 300 μg/disc) was 9.1 mm and the zone of inhibition at 30 µg/disc ([32]; 30 μg/disc) was 0 mm. It also gave a zone of inhibition at 300 µg/disc ([32]; 300 μg/disc) of 9.1 mm, an MIC [7] of 4 µg/mL (≈ 6.89 µM) and an MIC [33] of 4 µg/mL (≈ 6.89 µM). The MIC [8] was 2 µg/mL (≈ 3.44 µM), the MIC [9, 47] was 16 µg/mL (≈ 27.6 µM) and the MIC ([9]; Bacteroides thetaiotaomicron, 1438, Bacteroides thetaiotaomicron 1438, second listing) was 4 µg/mL (≈ 6.89 µM). For the same compound, the MIC [10] was 2 µg/mL (≈ 3.44 µM), the MIC [11] was 4 µg/mL (≈ 6.89 µM) and the MIC [12, 48] was no more than 0.5 µg/mL. For the same compound, the MIC ([12]; Bacteroides fragilis, 111, Bacteroides fragilis 111, second listing) was 4 µg/mL (≈ 6.89 µM), the MIC [34] was 4 µg/mL (≈ 6.89 µM) and the MIC [13] was no more than 0.5 µg/mL. It also gave an MIC [35] of 4 µg/mL (≈ 6.89 µM), an MIC [14] of 8 µg/mL (≈ 13.8 µM) and an MIC [15] of no more than 0.5 µg/mL. The MIC [36] was 4 µg/mL (≈ 6.89 µM), the MIC [37] was 4 µg/mL (≈ 6.89 µM) and the MIC [38] was 4 µg/mL (≈ 6.89 µM). For the same compound, the pKa ([16]; pH 4.03, 66% dimethylformamide in water, initial pH 4.03, read-out: pKa (first titratable group)) was roughly 6.68, the pKa ([16]; pH 4.03, 66% dimethylformamide in water, initial pH 4.03, read-out: pKa (second titratable group)) was roughly 8.42 and the MIC [17] was 8 µg/mL (≈ 13.8 µM). For the same compound, the MIC [39] was 4 µg/mL (≈ 6.89 µM), the MIC [18] was 0.5 µg/mL (≈ 0.861 µM) and the MIC [40] was 8 µg/mL (≈ 13.8 µM). For the same compound, the MIC [19, 49] was 1 µg/mL (≈ 1.72 µM), the MIC ([19]; Eikenella corrodens, 1874, Bacteroides corrodens 1874, second listing) was 4 µg/mL (≈ 6.89 µM) and the MIC [20] was 8 µg/mL (≈ 13.8 µM). For the same compound, the MIC [41] was 1 µg/mL (≈ 1.72 µM), the MIC [42] was 4 µg/mL (≈ 6.89 µM) and the MIC [43] was 4 µg/mL (≈ 6.89 µM). The MIC [21] was 8 µg/mL (≈ 13.8 µM), the “solubility (soluble)” value [22] was “soluble in the same solvents as factor A” and the MIC [44] was 16 µg/mL (≈ 27.6 µM). For the same compound, the MIC [23] was 2 µg/mL (≈ 3.44 µM) and the MIC [45] was 4 µg/mL (≈ 6.89 µM).

Source: patent publication US4452741A, “A-39183 Antibiotics and process for production thereof” (Eli Lilly and Company, priority 1983, dated 1984)
